In ChEMBL document CHEMBL1201862, “PubChem BioAssay data set” (2004):
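Interpolation was linear, between the two tested concentrations surrounding the appropriate level; five concentrations were tested over 48 hours in 96-well plates. Abbreviation: GI50, concentration required for 50% inhibition of growth.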 Active and inactive are the calls of the source. Rule as the data show it: active = GI50 up to about 1.1 µM and inactive = higher. Where a SMILES comes first, the peptide text is derived from it. The star is where a group is joined. CH2Cl = ClC*

What was measured:
Assay in all cases: growth of human tumour cells (NCI), 48 h
A498 = test system: A498
A549 = test system: A549
CCRF-CEM = test system: CCRF-CEM
HOP-92 = test system: HOP-92
IGROV-1 = test system: IGROV-1
KM12 = test system: KM12
LXFL 529 = test system: LXFL 529
OVCAR-3 = test system: OVCAR-3
OVCAR-4 = test system: OVCAR-4
SK-MEL-28 = test system: SK-MEL-28
SK-MEL-5 = test system: SK-MEL-5
SNB-75 = test system: SNB-75
TK-10 = test system: TK-10
UACC-62 = test system: UACC-62
UO-31 = test system: UO-31
MCF7 = test system: MCF7
MDA-MB-435 = test system: MDA-MB-435
MDA-N = test system: MDA-N
NCI/ADR-RES = test system: NCI/ADR-RES
PC-3 = test system: PC-3

| SMILES | GI50 (A498) | GI50 (A549) | GI50 (CCRF-CEM) | GI50 (HOP-92) | GI50 (IGROV-1) | GI50 (KM12) | GI50 (LXFL 529) | GI50 (OVCAR-3) | GI50 (OVCAR-4) | GI50 (SK-MEL-28) | GI50 (SK-MEL-5) | GI50 (SNB-75) | GI50 (TK-10) | GI50 (UACC-62) | GI50 (UO-31) | GI50 (MCF7) | GI50 (MDA-MB-435) | GI50 (MDA-N) | GI50 (NCI/ADR-RES) | GI50 (PC-3) |
| --- | --- | --- | --- | --- | --- | --- | --- | --- | --- | --- | --- | --- | --- | --- | --- | --- | --- | --- | --- | --- |
| CC1SC2=NC3=C(c4ccccc4C3=O)C(c3ccc(Cl)cc3)N2C1=O (centres undefined) | > 100 µM (inactive) | > 100 µM (inactive) | > 100 µM (inactive) | 22.3 µM (inactive) | > 100 µM (inactive) | > 100 µM (inactive) | > 100 µM (inactive) | > 100 µM (inactive) | 61.1 µM (inactive) | > 100 µM (inactive) | > 100 µM (inactive) | 45.8 µM (inactive) | > 100 µM (inactive) | > 100 µM (inactive) | 32.8 µM (inactive) |  |  |  |  |  |
| Cc1ccc2c(c1)NC(=O)C(N=[N+]=[N-])(c1ccccc1)C2=O (centres undefined) | 39.9 µM (inactive) | 50.5 µM (inactive) | 28.4 µM (inactive) | 24.5 µM (inactive) | 32.8 µM (inactive) | 15.2 µM (inactive) | 24 µM (inactive) | 18.9 µM (inactive) | 44.2 µM (inactive) | 45.1 µM (inactive) | 23.1 µM (inactive) | 33.4 µM (inactive) | 34.4 µM (inactive) | 22.2 µM (inactive) | 29 µM (inactive) |  |  |  |  |  |
| C=C[C@H]1C=Cc2c(OC)cccc2[C@@H]1COP1(=S)NC(C)C(c2ccccc2)O1 (some centres undefined) |  | 83.2 µM (inactive) | 42 µM (inactive) |  | > 100 µM (inactive) | > 100 µM (inactive) | 48.5 µM (inactive) | > 100 µM (inactive) | > 100 µM (inactive) | > 100 µM (inactive) | 44.2 µM (inactive) | > 100 µM (inactive) | > 100 µM (inactive) | 84.5 µM (inactive) |  |  |  |  |  |  |
| N=C1c2ccccc2C(=O)c2c(NCCNCCO)ccc(O)c21 | 13.7 µM (inactive) | 6.3 µM (inactive) | 9.62 µM (inactive) | 24.9 µM (inactive) | 5.38 µM (inactive) | 6.92 µM (inactive) | 6.5 µM (inactive) | 12.9 µM (inactive) | 23.4 µM (inactive) | 8.15 µM (inactive) | 7.03 µM (inactive) | 15.6 µM (inactive) | 11.9 µM (inactive) | 6.4 µM (inactive) | 7.83 µM (inactive) |  |  |  |  |  |
| CC(C)(C)c1cc2c3c(c1)c(=O)c1cccc4c(O)c5cccc(c2=O)c5c-3c41 | 99.1 µM (inactive) | > 100 µM (inactive) | 45.1 µM (inactive) | 36.6 µM (inactive) | > 100 µM (inactive) | 38.1 µM (inactive) | > 100 µM (inactive) | 40.4 µM (inactive) | > 100 µM (inactive) | 10 µM (inactive) |  | > 100 µM (inactive) | > 100 µM (inactive) | > 100 µM (inactive) | > 100 µM (inactive) |  |  |  |  |  |
| O=C(Nc1ccccc1[N+](=O)[O-])c1ccccc1 | > 100 µM (inactive) | > 100 µM (inactive) |  | 65.9 µM (inactive) | > 100 µM (inactive) | 55.5 µM (inactive) | > 100 µM (inactive) | > 100 µM (inactive) | 82.6 µM (inactive) | > 100 µM (inactive) | > 100 µM (inactive) | 65.3 µM (inactive) | > 100 µM (inactive) | > 100 µM (inactive) | 61.7 µM (inactive) |  |  |  |  |  |
| CN1N=CSC12C(=O)N(c1ccccc1)C(=O)N2c1ccccc1 (centres undefined) | > 100 µM (inactive) | > 100 µM (inactive) | > 100 µM (inactive) |  | > 100 µM (inactive) | > 100 µM (inactive) | > 100 µM (inactive) | > 100 µM (inactive) | 82.2 µM (inactive) | > 100 µM (inactive) | > 100 µM (inactive) | > 100 µM (inactive) | > 100 µM (inactive) | > 100 µM (inactive) | > 100 µM (inactive) |  |  |  |  |  |
| COCCOc1cc(C)cc(/C=C(C)/C=C/C2=C(C)CCCC2(C)C)n1 | > 100 µM (inactive) | 51.9 µM (inactive) |  | 38.6 µM (inactive) | > 100 µM (inactive) | 70.6 µM (inactive) | 45.8 µM (inactive) | > 100 µM (inactive) | 59.2 µM (inactive) | > 100 µM (inactive) | 17.3 µM (inactive) | > 100 µM (inactive) | > 100 µM (inactive) | > 100 µM (inactive) | > 100 µM (inactive) |  |  |  |  |  |
| COc1ccc(C)cc1-c1ccc(-c2cc(C)ccc2OC)o1 | > 100 µM (inactive) | > 100 µM (inactive) | 68.4 µM (inactive) | 54.6 µM (inactive) | > 100 µM (inactive) | > 100 µM (inactive) | > 100 µM (inactive) | > 100 µM (inactive) | > 100 µM (inactive) | > 100 µM (inactive) |  | > 100 µM (inactive) | > 100 µM (inactive) | > 100 µM (inactive) | > 100 µM (inactive) |  |  |  |  |  |
| C[C@]12CCC(=O)C=C1CC[C@@H]1C2CC[C@]2(C)Nc3c(cnn3-c3ccccc3)CC12 (some centres undefined) | > 100 µM (inactive) | > 100 µM (inactive) | > 100 µM (inactive) |  | > 100 µM (inactive) | > 10 µM (inactive) | > 100 µM (inactive) | > 10 µM (inactive) | > 100 µM (inactive) | > 100 µM (inactive) | > 100 µM (inactive) | 39.1 µM (inactive) | > 100 µM (inactive) | > 100 µM (inactive) | > 100 µM (inactive) |  |  |  |  |  |
| CCOc1ccc(NC(=O)CC2C(=O)Nc3ccccc3S2(=O)=O)cc1 (centres undefined) | > 100 µM (inactive) | > 100 µM (inactive) |  | 13.3 µM (inactive) | > 100 µM (inactive) | > 100 µM (inactive) | > 100 µM (inactive) | 77.1 µM (inactive) | > 100 µM (inactive) | > 100 µM (inactive) |  | 18.1 µM (inactive) | > 100 µM (inactive) |  | > 100 µM (inactive) |  |  |  |  |  |
| CC(=O)NC1=C(NCCO)C(=O)c2ccccc2C1=O |  | > 50 µM (inactive) | 42.6 µM (inactive) |  | > 50 µM (inactive) | > 50 µM (inactive) | > 50 µM (inactive) | 18.9 µM (inactive) | > 50 µM (inactive) | > 50 µM (inactive) | 29.9 µM (inactive) | > 50 µM (inactive) | > 50 µM (inactive) | > 50 µM (inactive) | > 50 µM (inactive) |  |  |  |  |  |
| CCn1c(=O)c2cn[nH]c2n(C)c1=O | > 100 µM (inactive) | > 100 µM (inactive) | > 100 µM (inactive) | > 100 µM (inactive) | 66.7 µM (inactive) | > 100 µM (inactive) |  | > 100 µM (inactive) | > 100 µM (inactive) | > 100 µM (inactive) | > 100 µM (inactive) | > 100 µM (inactive) | > 100 µM (inactive) | > 100 µM (inactive) | > 100 µM (inactive) | > 100 µM (inactive) | > 100 µM (inactive) | > 100 µM (inactive) | > 100 µM (inactive) | > 100 µM (inactive) |
| Cc1cc(=O)n2c3c(c4c(cc13)c(CN(C)C)cc(=O)n4C)OC2 | 38.2 µM (inactive) | 10 µM (inactive) | > 24.8 µM (inactive) | 28.5 µM (inactive) | 9.51 µM (inactive) | 14.7 µM (inactive) |  | 18.6 µM (inactive) | 9.27 µM (inactive) | 31.8 µM (inactive) | 12.2 µM (inactive) | 14.7 µM (inactive) | 19.6 µM (inactive) | 12.6 µM (inactive) | 8.04 µM (inactive) | 6.47 µM (inactive) | 20.9 µM (inactive) | 27.8 µM (inactive) | 15 µM (inactive) | 19.9 µM (inactive) |
| CCOC(=O)C(=O)Nc1ccccc1OCC |  | > 100 µM (inactive) | > 100 µM (inactive) | > 100 µM (inactive) | > 100 µM (inactive) | > 100 µM (inactive) | > 100 µM (inactive) | > 100 µM (inactive) | > 100 µM (inactive) | > 100 µM (inactive) | > 100 µM (inactive) |  | > 100 µM (inactive) | > 100 µM (inactive) | 92.9 µM (inactive) |  |  |  |  |  |
| O=c1cc(-c2ccccc2)[nH]c2ccc(N3CCOCC3)cc12 | 0.0413 µM (active) | 0.0773 µM (active) | 0.0144 µM (active) | 0.0622 µM (active) | 0.0518 µM (active) | < 0.0171 µM (active) |  | 0.0148 µM (active) | 20.1 µM (inactive) | 0.0128 µM (active) | < 0.0233 µM (active) | 0.0143 µM (active) | 55 µM (inactive) | < 0.0268 µM (active) | 13.2 µM (inactive) | 0.0327 µM (active) | < 0.01 µM (active) | < 0.01 µM (active) | 0.0435 µM (active) | 0.0346 µM (active) |
| O=C1c2cccc3cccc(c23)C(=O)N1CCCN1CCN(CCCN2C(=O)c3cccc4cccc(c34)C2=O)CC1 | > 100 µM (inactive) | > 100 µM (inactive) | 32.8 µM (inactive) | > 100 µM (inactive) | > 100 µM (inactive) | > 100 µM (inactive) | > 100 µM (inactive) | > 100 µM (inactive) | > 100 µM (inactive) |  | > 100 µM (inactive) | > 100 µM (inactive) | > 100 µM (inactive) | > 100 µM (inactive) | > 100 µM (inactive) |  |  |  |  |  |
| CC(=O)NC(CC(C)C)C(=O)NC(Cc1ccccc1)C(=O)CCl (stereo not drawn) (Ac-Leu-Phe-CH2Cl; configuration not given here) | 18.8 µM (inactive) | 20.7 µM (inactive) | 1.32 µM (inactive) | 5.78 µM (inactive) | 16.1 µM (inactive) | 18.7 µM (inactive) |  | 13.2 µM (inactive) | 18.3 µM (inactive) | 10.6 µM (inactive) | 8.02 µM (inactive) | 14.1 µM (inactive) | 10.4 µM (inactive) | 11.7 µM (inactive) | 14.6 µM (inactive) | 5.04 µM (inactive) | 12.3 µM (inactive) | 9.68 µM (inactive) | 10.9 µM (inactive) | 14 µM (inactive) |
